According to patent US5017573A, “Indazole-3-carboxylic acid derivatives” (Dainippon Pharmaceutical Co., Ltd., priority 1988, dated 1991):

Key:
[1] = tested on: serotonin 3 (5--HT3) receptor; assay: Effect on Von Bezold-Jarisch reflex in rats (serotonin 3 receptor antagonist activity); assay type: in vivo, rat; details: male Wistar or SD rats, anesthetized; test compound 1 μg/kg i.v. 3 minutes before 2-methylserotonin (10-30 μg/kg i.v.)
Experimental: Effect on Von Bezold-Jarisch reflex in rats
(Serotonin 3 receptor antagonist activity)
The test was carried out substantially by the method of Fozard et al. [cf. Arch. Pharmacology, 326, 36-44 (1984)]. Male Wistar rats weighing 250-350 g or male SD rats weighing 300-400 g were anesthetized with urethane (1.5 g/kg, interraperitoneal) and placed on their back. An electrocardiogram (lead II) and a heart rate on the animals were recorded on an inkwriting oscillograph via a biophysical amplifier and a pulse rate tachomether, respectively. […] After stable responses were obtained following repeated administration of 2-methylserotonin at 15-minute intervals, the test compound (1 μg/kg) was administered intravenously 3 minutes before administration of 2-methylserotonin. The inhibition rate of the test compound was calculated as follows. [formula]

[2] = tested on: cisplatin-induced vomiting in ferrets; assay: Effect on cisplatin-induced vomiting in ferrets; assay type: in vivo, ferret; details: male ferrets; 0.03 mg/kg i.v. twice (30 minutes before and 45 minutes after cisplatin 10 mg/kg); emetic episodes for 3 hours
Experimental: Effect on cisplatin-induced vomiting in ferrets and acute toxicity in mice
Male ferrets (Marshall Lab., U.S.A.) weighing approximately 1 kg were used. For intravenous injection, a cannule was implanted in the cervical vein under pentobarbital anethesia. The experiments were started 3 and 4 days after the operation. Saline (2 ml/kg) as a control group and a dose (0.03 mg/kg) of a test compound as a treated group were administered twice, i.e., 30 minutes before and 45 minutes after administratin of 10 mg/kg of cisplatin (Sigma, U.S.A) dissolved in saline (3 ml/kg). The number of emetic episodes for 3 hours after administration of cisplatin was recorded, and the inhibition rate of the test compound was calculated as follows. [formula]
All test compounds were administered intravenously.

[3] = tested on: mice; assay: Acute toxicity in mice; assay type: in vivo, mouse; details: male Std-ddY mice; 100 mg/kg i.p.; mortality observed for 7 days
Experimental: An acute toxicity test was performed using male Std-ddY mice weighing 25-30 g. Test compounds dissolved or suspended in 0.5 % tragacanth solution were administered intraperitoneally.

Row | Compound | Inhibition rate (%) of Von Bezold-Jarisch reflex [1] | Inhibition of emetic episodes in ferrets, inhibition rate (%) [2] | Acute toxicity in mice (number of dead animals/number of animals used) [3]
1 | CC1CN(Cc2ccccc2)CC(NC(=O)c2n[nH]c3ccccc23)CN1C (single isomer, unassigned) [Example 67, N-(1-benzyl-3,4-dimethylhexahydro-1H-1,4-diazepin-6-yl)-1H -indazole-3-carboxamide] | 72% | – | –
2 | CC1CN(C)CC(NC(=O)c2n[nH]c3ccccc23)CN1Cc1ccccc1 (single isomer, unassigned) [Example 69, N-(1-benzyl-2,4-dimethylhexahydro-1H-1,4-diazepin-6-yl)-1H -indazole-3-carboxamide] | 90% | – | –
3 | Cc1cccc(CN2CCN(C)CC(NC(=O)c3n[nH]c4ccccc34)C2)c1 (stereo not shown) [1(b), N-[1-(3-methylbenzyl)4-methylhexahydro-1H-1,4-diazepin-6-yl]-1H-indazole-3-carboxamide] | 83% | – | –
4 | Cc1cccc(CN2CCN(C)CC(NC(=O)c3n[nH]c4ccccc34)C2)c1 (stereo not shown) [Example 1(a), N-[1-(3-methylbenzyl)4-methylhexahydro-1H-1,4-diazepin-6-yl]-1H-indazole-3-carboxamide] | 82% | 89% | 1/5
5 | Cc1ccc(CN2CCN(C)CC(NC(=O)c3n[nH]c4ccccc34)C2)cc1 (stereo not shown) [Example 3] | 92% | – | –
6 | COc1ccc(CN2CCN(C)CC(NC(=O)c3n[nH]c4ccccc34)C2)cc1 (stereo not shown) [Example 5] | 78% | – | –
7 | CN1CCN(Cc2ccccc2F)CC(NC(=O)c2n[nH]c3ccccc23)C1 (stereo not shown) [Example 6] | 75% | – | –
8 | CN1CCN(Cc2cccc(F)c2)CC(NC(=O)c2n[nH]c3ccccc23)C1 (stereo not shown) [Example 7] | 84% | – | –
9 | CN1CCN(Cc2ccc(F)cc2)CC(NC(=O)c2n[nH]c3ccccc23)C1 (stereo not shown) [Example 8] | 77% | 71% | 0/5
10 | CN1CCN(Cc2ccc(Br)cc2)CC(NC(=O)c2n[nH]c3ccccc23)C1 (stereo not shown) [Example 10] | 82% | – | –
11 | CN1CCN(Cc2ccccc2C#N)CC(NC(=O)c2n[nH]c3ccccc23)C1 (stereo not shown) [Example 11, N-[1-(2-cyanobenzyl)-4-methylhexahydro-1H-1,4-diazepin-6-yl]-1H-indazole-3-carboxamide] | 95% | – | –
12 | CN1CCN(Cc2ccc(C#N)cc2)CC(NC(=O)c2n[nH]c3ccccc23)C1 (stereo not shown) [Example 13] | 83% | – | –
13 | CN1CCN(Cc2cccnc2)CC(NC(=O)c2n[nH]c3ccccc23)C1 (stereo not shown) [Example 16, N-[1-(3-pyridylmethyl)-4-methylhexahydro-1H-1,4-diazepin-6-yl]-1H-indazole-3-carboxamide] | 85% | 82% | 0/5
14 | CN1CCN(Cc2ccncc2)CC(NC(=O)c2n[nH]c3ccccc23)C1 (stereo not shown) [Example 17] | 91% | 62% | 1/5
15 | CN1CCN(Cc2cc(F)cc(F)c2)CC(NC(=O)c2n[nH]c3ccccc23)C1 (stereo not shown) [Example 23] | 86% | – | –
16 | CN1CCN(Cc2ccccc2)CC(NC(=O)c2n[nH]c3ccccc23)C1 (stereo not shown) [Example 32, N-(1-benzyl-4-methylhexahydro-1H-1,4-diazepin-6-yl)-1H-indazole-3-carboxamide] | – | 62% | 0/5
17 | CN1CCN(Cc2ccccc2)CC(NC(=O)c2nn(C)c3ccccc23)C1 (stereo not shown) [Example 33, N-(1-benzyl-4-methylhexahydro-1H-1,4-diazepin-6-yl)-1-methyl-1H-indazole-3-carboxamide] | 96% | 44% | 2/5
18 | CCCCn1nc(C(=O)NC2CN(C)CCN(Cc3ccccc3)C2)c2ccccc21 (stereo not shown) [Example 46] | 70% | – | –
19 | C=CCn1nc(C(=O)NC2CN(C)CCN(Cc3ccccc3)C2)c2ccccc21 (stereo not shown) [Example 48] | 79% | – | –
20 | CC(=O)n1nc(C(=O)NC2CN(C)CCN(Cc3ccccc3)C2)c2ccccc21 (stereo not shown) [Example 52, N-(1-benzyl-4-methylhexahydro-1H-1,4-diazepin-6-yl)-1-acetyl-1H-indazole-3-carboxamide] | 89% | – | –
21 | CCC(=O)n1nc(C(=O)NC2CN(C)CCN(Cc3ccccc3)C2)c2ccccc21 (stereo not shown) [Example 53, N-(1-benzyl-4-methylhexahydro-1H-1,4-diazepin-6-yl)-1-propionyl-1H-indazole-3-carboxamide] | 83% | 29% | 1/5
